Laboratory results as given in patent publication US8735387B2, “Oxazolopyrimidines as Edg-1 receptor agonists” (Sanofi, priority 2008, dated 2014).

These compounds were tested against T1, human Edg-1 receptor (Homo sapiens, UniProt P21453) (assay: GTP-γ-S assay using human Edg-1 receptors (scintillation proximity assay, membrane preparation from CHO Flp-In cell line)). Conditions: example compound at 10 μM; relative to 10 μM S1P; GTP-γ-S SPA, human Edg-1 membranes.
T1 construct: expressed in transfected cells; membrane preparation
Assay type: biochemical
Outline: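 Membranes came from Flp-In CHO cells constitutively expressing human Edg-1 carrying an N-terminal FLAG tag. Compound-induced receptor activation was read as GTP-γ-S binding in a scintillation proximity format.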

T1 sequence (P21453 whole entry): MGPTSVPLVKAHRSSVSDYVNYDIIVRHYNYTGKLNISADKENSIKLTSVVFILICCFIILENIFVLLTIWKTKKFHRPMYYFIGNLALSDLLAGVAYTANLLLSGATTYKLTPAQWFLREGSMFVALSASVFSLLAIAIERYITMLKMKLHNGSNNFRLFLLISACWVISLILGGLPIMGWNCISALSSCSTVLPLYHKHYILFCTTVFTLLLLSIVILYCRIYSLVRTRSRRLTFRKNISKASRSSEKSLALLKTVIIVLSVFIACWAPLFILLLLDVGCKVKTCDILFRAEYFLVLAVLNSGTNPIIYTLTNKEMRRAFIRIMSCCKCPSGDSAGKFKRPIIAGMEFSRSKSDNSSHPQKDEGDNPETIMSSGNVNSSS

Compound | % Activation (Edg-1 receptor activation in percent of the activation by 10 μM S1P)
CCOc1nc(Cc2ccc(Cl)cc2)nc2oc(-c3cc(C)c(OCC(O)CNC(=O)C4(O)CC4)c(C)c3)nc12 (centres unmarked) [Example 260] | 95%
Clc1ccc(Cc2nc(OC3CCCC3)c3nc(-c4cccs4)oc3n2)cc1 [Example 114] | 83%
CCOc1nc(Cc2ccc(Cl)cc2)nc2oc(-c3cc(C)c(OCC(=O)NCCCC(=O)O)c(C)c3)nc12 [Example 288] | 113%
CCOc1nc(Cc2ccc(Cl)cc2)nc2oc(-c3cc(C)c(OCCCS(=O)(=O)c4ncn[nH]4)c(C)c3)nc12 [Example 295] | 100%
Fc1cccc(-c2nc3c(OCC4CC4)nc(CCc4ccc(Cl)cc4)nc3o2)c1 [Example 7] | 23%
CCCOc1nc(Cc2ccc(Cl)cc2)nc2oc(-c3cc(C)c(OCC(=O)N4CC(C(=O)O)C4)c(C)c3)nc12 [Example 242] | 106%
CCOc1nc(Cc2ccc(Cl)cc2)nc2oc(-c3cc(C)c(OCCCSc4ncn[nH]4)c(C)c3)nc12 [Example 296] | 52%
CCOc1nc(Cc2ccc(Cl)cc2)nc2oc(-c3cc(C)c(OCC(=O)NCC#N)c(C)c3)nc12 [Example 294] | 83%
CCCOc1nc(Cc2ccc(Cl)cc2)nc2oc(-c3cc(C)c(OCCCNCCC(=O)OC(C)(C)C)c(C)c3)nc12 [Example 230] | 101%
CCCOc1nc(Cc2ccc(Cl)cc2)nc2oc(-c3cc(C)c(OCC(O)CNCCC(=O)O)c(C)c3)nc12 (centres unmarked) [Example 237] | 115%
CCCOc1nc(Cc2ccc(Cl)cc2)nc2oc(-c3cc(C)c(OCC(=O)NCC(=O)OC(C)(C)C)c(C)c3)nc12 [Example 256] | 69%
CCCOc1nc(Cc2ccc(Cl)cc2)nc2oc(-c3ccc(Cl)c(C)c3)nc12 [Example 169] | 87%
CCCOc1nc(C(C)c2ccccc2)nc2oc(-c3cccc(F)c3)nc12 (centres unmarked) [Example 14] | 97%
CCCOc1nc(Cc2ccc(Cl)cc2)nc2oc(-c3cc(C)ccc3F)nc12 [Example 167] | 102%
CCCOc1nc(Cc2ccc(Cl)cc2)nc2oc(-c3cc(F)ccc3F)nc12 [Example 131] | 116%
CCOc1nc(Cc2ccc(Cl)cc2)nc2oc(-c3cc(C)c(OCC(O)CNC(=O)CC(C)C)c(C)c3)nc12 (centres unmarked) [Example 217] | 78%
CCOc1nc(Cc2ccc(Cl)cc2)nc2oc(-c3cccc(OCC(=O)NCCC(=O)O)c3)nc12 [Example 298] | 92%
CCCOc1nc(Cc2ccc(Cl)cc2)nc2oc(-c3cc(OC)ncc3Cl)nc12 [Example 177] | 106%
CCOc1nc(Cc2ccc(Cl)cc2)nc2oc(-c3cccc(OC)c3)nc12 [Example 284] | 103%
Cc1cccc(-c2nc3c(OC4CCCC4)nc(Cc4ccc(Cl)cc4)nc3o2)c1 [Example 107] | 73%
CCCOc1nc(Cc2ccc(Cl)cc2)nc2oc(-c3ccc(OC)c(C)c3)nc12 [Example 176] | 94%
CCOc1nc(Cc2ccc(Cl)cc2)nc2oc(-c3cc(C)c(OCC(O)C[S+]([O-])c4ncn[nH]4)c(C)c3)nc12 (centres unmarked) [Example 286] | 114%
CCOc1nc(Cc2ccc(Cl)cc2)nc2oc(-c3cc(C)c(O)c(C)c3)nc12 [Example 191] | 98%
CCCOc1nc(Cc2ccc(Cl)cc2)nc2oc(-c3cc(C)c(OCC(=O)N4CCC(C(=O)O)C4)c(C)c3)nc12 (centres unmarked) [Example 243] | 106%
COc1cccc(-c2nc3c(OCC(C)C)nc(Cc4ccccc4)nc3o2)c1 [Example 189] | 114%
CCCOc1nc(Cc2ccc(Cl)cc2)nc2oc(-c3ccc(O)c(F)c3)nc12 [Example 152] | 100%
CCCOc1nc(Cc2ccc(Cl)cc2)nc2oc(-c3ccc(OCC(O)CNCc4ccccc4)c(Cl)c3)nc12 (centres unmarked) [Example 210] | 94%
CCCOc1nc(Cc2ccccc2)nc2oc(-c3cc(C)c(OC)c(C)c3)nc12 [Example 188] | 112%

Next, values leading:

% Activation (Edg-1 receptor activation in percent of the activation by 10 μM S1P) | Compound
104% | CCCOc1nc(CN2CCC(F)(F)CC2)nc2oc(-c3cc(Cl)ccc3OC)nc12 [Example 76]
65% | CCCOc1nc(Cc2ccc(Cl)cc2)nc2oc(-c3ccco3)nc12 [Example 102]
114% | CCCOc1nc(Cc2ccc(Cl)cc2)nc2oc(-c3cc(C)c(OCC(O)CN4CCOCC4)c(C)c3)nc12 (centres unmarked) [Example 193]
97% | CCCOc1nc(CN2CCCOCC2)nc2oc(-c3cc(F)ccc3Cl)nc12 [Example 23]
89% | CCCOc1nc(Cc2ccc(Cl)cc2)nc2oc(-c3cccc(C)c3C)nc12 [Example 170]
118% | CCOc1nc(CC2CCC2)nc2oc(-c3cccc(C)c3)nc12 [Example 163]
123% | CCCOc1nc(CN2CCCOCC2)nc2oc(-c3cc(F)cc(F)c3)nc12 [Example 26]
30% | CCCOc1nc(Cn2cnc(-c3ccccc3)c2)nc2oc(-c3cccc(F)c3)nc12 [Example 59]
124% | CCCOc1nc(CN2CCOCC2)nc2oc(-c3cccc(Cl)c3)nc12 [Example 27]
107% | CCCOc1nc(CN2CCOCC2)nc2oc(-c3ccc(Cl)c(F)c3)nc12 [Example 89]
143% | CCCOc1nc(Cc2ccc(Cl)cc2)nc2oc(-c3ccncc3F)nc12 [Example 150]
72% | CCCOc1nc(CN2CCOCC2)nc2oc(-c3cc(Cl)ccc3OC)nc12 [Example 75]
102% | CCCOc1nc(CN2CCCC(F)(F)C2)nc2oc(-c3cccc(F)c3)nc12 [Example 50]
81% | CCCOc1nc(Cc2ccc(Cl)cc2)nc2oc(-c3cc(C)c(OCC(=O)N4CCOCC4)c(C)c3)nc12 [Example 306]
87% | Clc1ccc(Cc2nc(OCC3CC3)c3nc(-c4ccc(N5CCOCC5)nc4)oc3n2)cc1 [Example 139]
103% | CCCOc1nc(Cc2ccc(Cl)cc2)nc2oc(-c3cccnc3)nc12 [Example 122]
64% | CCCOc1nc(Cn2cncc2C(=O)OC)nc2oc(-c3cccc(F)c3)nc12 [Example 60]
94% | CCCOc1nc(CN2C(=O)COCC2=O)nc2oc(-c3cccc(F)c3)nc12 [Example 62]
98% | Cc1cc(-c2nc3c(OC(C)C)nc(Cc4ccc(Cl)cc4)nc3o2)cc(C)c1OCC(O)CN1CCOCC1 (centres unmarked) [Example 194]
104% | CCCOc1nc(CN2CC[C@@H](F)C2)nc2oc(-c3cccc(F)c3)nc12 [Example 303]
79% | CCCOc1nc(Cn2cnc(C#N)n2)nc2oc(-c3cccc(F)c3)nc12 [Example 203]
105% | CCCOc1nc(CN2CCCOCC2)nc2oc(-c3ccc(F)c(F)c3)nc12 [Example 67]
81% | CCCOc1nc(Cn2ccnc2C)nc2oc(-c3cccc(F)c3)nc12 [Example 48]
101% | CCCOc1nc(CN2CCOCC2)nc2oc(-c3ccc(OC)c(F)c3)nc12 [Example 88]
116% | CCCOc1nc(CN2CCCOCC2)nc2oc(-c3cccc(OC)c3)nc12 [Example 37]
87% | CCCOc1nc(CN2CCCC(O)C2)nc2oc(-c3cccc(F)c3)nc12 (centres unmarked) [Example 179]

Same assay, conditions: example compound at 10 μM; relative to 10 μM S1P; GTP-γ-S SPA, human Edg-1 membranes; read-out: % Activation (Edg-1 receptor activation in percent of the activation by 10 μM S1P)

Compound | activation at 10 µM
CCOc1nc(C(C)c2ccccc2)nc2oc(-c3cccc(F)c3)nc12 (centres unmarked) [Example 15, 7-ethoxy-2-(3-fluoro-phenyl)-5-(1-phenyl-ethyl)-oxazolo[5,4-d]pyrimidine] | 104%
CCCOc1nc(Cc2ccc(Cl)cc2)nc2oc(-c3cc(C)c(OC)c(C)c3)nc12 [Example 168, 5-(4-chloro-benzyl)-2-(4-methoxy-3,5-dimethyl-phenyl)-7-propoxy-oxazolo[5,4-d]pyrimidine] | 117%

Other lines, results leading:

activation at 10 µM | Compound
117% | CCCOc1nc(CN2CCOCC2)nc2oc(-c3cc(F)ccc3Cl)nc12 [Example 1, 2-(2-Chloro-5-fluoro-phenyl)-5-morpholin-4-ylmethyl-7-propoxy-oxazolo[5,4-d]pyrimidine]
113% | CCCOc1nc(CN2CCOCC2)nc2oc(-c3ccc(Br)o3)nc12 [Example 3, 2-(5-Bromo-furan-2-yl)-5-morpholin-4-ylmethyl-7-propoxy-oxazolo[5,4-d]pyrimidine]
39% | CCCOc1nc(Cc2ccc(Cl)c(Cl)c2)nc2oc(-c3cccc(C)c3)nc12 [Example 11, 5-(3,4-Dichloro-benzyl)-7-propoxy-2-(3-methyl-phenyl)-oxazolo[5,4-d]pyrimidine]
